Data on six compounds can be found in patent US10668062B2, “Oxabicycloheptanes and oxabicycloheptenes for the treatment of diabetes” (priority 2012, dated 2020).

“Also recorded” adds a separate entry of the source.

Data set [1] in a line: Other symptoms and complications of Type 2 Diabetes (Example 6). The data set is classed as in vivo. Particulars: for effects of other dysfunctions associated with or caused by Type 2 Diabetes: atherosclerosis, low glucose tolerance, dyslipidemia, hyperlipidemia, hypertriglyceridemia, hypercholesterolemia; for complications associated with or caused by Type 2 Diabetes: in vivo.

A short description of data set [2]: Type 2 Diabetes related vascular injury in human patients (Example 5). Particulars: human patients diagnosed with Type 2 Diabetes. The data set is classed as in vivo.
Data set [3] in a line: Insulin resistance in human patients diagnosed with Type 2 Diabetes (Example 4). The format is in vivo.
A further data set relates to Akt. Put plainly: Dephosphorylation and inactivation of Akt in mammalian cells (Example 3). The format is cell-based. The conditions noted are these: mammalian cells incl. fat, liver, muscle, endothelial cells, hepatocytes, pancreatic islet β-cells.
The nature of data set [4]: Activity when given orally to mice. The format is in vivo. Particulars: oral. An excerpt:
(§1) The compounds used in the method of the present invention are protein phosphatase 2A (PP2A) inhibitors (Lu et al., 2009; U.S. Pat. No. 7,998,957 B2). […] It has also been shown that another structural homolog of these compounds, LB-107, is active when given orally to mice.
(§2) Disclosed herein is that PP2A inhibitors are effective in treating insulin resistance, Type 2 Diabetes and disorders related to Type 2 Diabetes. […] We have also shown that another structural homolog of these compounds, LB-107, is active when given orally to mice. LB-100 is entering clinical trials as a potential agent for enhancing the effectiveness of certain anticancer agents.

Data set [5] addresses T1, PP2A (Homo sapiens, UniProt P67775).
T1 construct: endogenous in cells; host or cells: human cancer cells
Particulars: given parenterally in mice; cited from earlier work.

A further data set can be described thus: Toxicity studies in rats. The conditions noted are these: doses known to reduce PP2A activity in tissue. The data set is classed as in vivo.
Description: as §2

The subject of a further data set is cancer cells. Put plainly: Growth of cancer cells in mouse model systems. The data set is classed as in vivo.
Description: as §1, §2

Data set [6] concerns the target T1, PP2A. Particulars: cited from earlier work.
The nature of a further data set: Toxicity studies in dogs. The data set is classed as in vivo. The conditions noted are these: doses known to reduce PP2A activity in tissue.
Description: as §2

The test system of data set [7] is endothelial barrier. The conditions noted are these: Zhou et al, 2012; cited from earlier work.
Data set [8] deals with endothelial barrier. The conditions noted are these: model of sepsis; by inhibition of PP2A activation; cited from earlier work.
Data set [9] deals with T2, PP2A (Rattus norvegicus, UniProt P63331).
T2 construct: rat liver cells exposed to palmitate, a fatty acid, PP2A activity is increased; host or cells: rat liver cells (endogenous PP2A)
T2 sequence (P63331 whole entry): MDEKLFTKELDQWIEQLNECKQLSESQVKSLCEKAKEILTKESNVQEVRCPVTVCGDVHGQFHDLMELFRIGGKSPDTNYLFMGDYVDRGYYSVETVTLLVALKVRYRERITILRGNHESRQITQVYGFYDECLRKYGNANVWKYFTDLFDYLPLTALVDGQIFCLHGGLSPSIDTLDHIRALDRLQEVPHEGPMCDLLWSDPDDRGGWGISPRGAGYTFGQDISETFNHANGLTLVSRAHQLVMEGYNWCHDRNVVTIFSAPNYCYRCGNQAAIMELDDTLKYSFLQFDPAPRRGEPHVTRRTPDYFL
T2 sequence (Q5XI34 1-589 partner): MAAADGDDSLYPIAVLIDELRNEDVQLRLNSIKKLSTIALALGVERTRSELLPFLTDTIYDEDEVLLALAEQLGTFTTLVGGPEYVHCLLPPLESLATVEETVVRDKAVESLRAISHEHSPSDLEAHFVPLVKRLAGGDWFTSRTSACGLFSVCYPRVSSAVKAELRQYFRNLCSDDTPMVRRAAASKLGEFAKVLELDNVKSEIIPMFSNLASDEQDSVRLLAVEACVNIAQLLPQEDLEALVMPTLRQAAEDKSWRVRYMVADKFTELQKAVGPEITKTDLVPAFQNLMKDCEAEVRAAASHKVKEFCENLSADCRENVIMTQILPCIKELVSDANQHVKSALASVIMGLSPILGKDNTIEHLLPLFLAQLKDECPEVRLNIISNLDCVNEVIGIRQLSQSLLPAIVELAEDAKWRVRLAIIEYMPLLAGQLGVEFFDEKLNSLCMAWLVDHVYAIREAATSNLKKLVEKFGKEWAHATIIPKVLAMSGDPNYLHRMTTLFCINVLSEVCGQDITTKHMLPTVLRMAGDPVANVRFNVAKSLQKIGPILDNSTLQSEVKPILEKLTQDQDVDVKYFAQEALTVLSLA
Particulars: inhibition of PP2A activity; Galbo et al, 2011; cited from earlier work.

T1 sequence (P67775 whole entry): as the sequence (P63331 whole entry) above, with L5V counted along it
T1 sequence (P30153 whole entry partner): as the sequence (Q5XI34 1-589 partner) above, with T324S counted along it

With `COC(=O)C1C(C(=O)N2CCN(C)CC2)[C@@H]2CC[C@H]1O2` (stereo in doubt) [LB-107, 3-(4-Methylpiperazine-1-carbonyl)-7-oxa-bicyclo[2,2,1]heptane-2-carboxylic acid methyl ester], in data set [1], the “effects of other dysfunctions associated with or caused by Type 2 Diabetes” value (shortened to “effects of other dysfunctions associated”) is listed as “reduce the effects of other dysfunctions” and the “complications associated with or caused by Type 2 Diabetes” value (from here on “complications associated with or caused”) is on record as “reduce complications associated with or caused by Type 2 Diabetes”. In data set [2], the “Type 2 Diabetes related vascular injury caused by disruption of the endothelial barrier” value is given as “reduce Type 2 Diabetes related vascular injury caused by disruption of the endothelial barrier”; the “Type 2 Diabetes related vascular injury in the liver, muscle, retina and pancreas” value is “reduce Type 2 Diabetes related vascular injury in the liver, muscle, retina and pancreas”. In data set [3], the insulin resistance result is “reduce insulin resistance” and the insulin sensitivity entry is on record as “increase insulin sensitivity”. For the same compound, in the data set on Akt, the “activation of Akt” value is on record as “increase activation of Akt”; the “dephosphorylation and inactivation of Akt by PP2A” value (from here on “dephosphorylation and inactivation”) is “reduce dephophorylation and inactivation of Akt”; the “phosphorylation of Akt” value was “increase phosphorylation of Akt”. Moreover, the “activity when given orally to mice” value in data set [4] is listed as “active”.
With `CN1CCN(C(=O)C2C(C(=O)O)[C@H]3CC[C@@H]2O3)CC1` (some centres unmarked) [LB-100], in [1], the “effects of other dysfunctions associated” value is recorded as “reduce the effects of other dysfunctions” and the “complications associated with or caused” value is given as “reduce complications associated with or caused by Type 2 Diabetes”. The “inhibition of PP2A in xenografts of human tumor cells in mice” value on PP2A [5] was “inhibitors of PP2A”. In addition, in data set [2], the “Type 2 Diabetes related vascular injury caused by disruption of the endothelial barrier” value is on record as “reduce Type 2 Diabetes related vascular injury caused by disruption of the endothelial barrier”; the “Type 2 Diabetes related vascular injury in the liver, muscle, retina and pancreas” value is “reduce Type 2 Diabetes related vascular injury in the liver, muscle, retina and pancreas”. Moreover, in “Toxicity studies in rats”, the “toxicity on intravenous administration” value is recorded as “without undue toxicity”. The “growth of cancer cells in mouse model systems” value in the data set with cancer cells was “inhibit the growth of cancer cells”. Moreover, in data set [3], the insulin resistance result was “reduce insulin resistance” and the insulin sensitivity entry is “increase insulin sensitivity”. On PP2A [6], the “inhibition of PP2A in vitro in human cancer cells” value is recorded as “inhibitors of PP2A”. Moreover, in the data set on Akt, the “activation of Akt” value is given as “increase activation of Akt”; the “dephosphorylation and inactivation” value was “reduce dephophorylation and inactivation of Akt”; the “phosphorylation of Akt” value is reported as “increase phosphorylation of Akt”. Moreover, in “Toxicity studies in dogs”, the “toxicity on intravenous administration” value was “without undue toxicity”.
In the case of `CC(C)(C)OC(=O)N1CCN(C(=O)C2C(C(=O)O)[C@H]3CC[C@@H]2O3)CC1` (some centres unmarked) [LB-102], in data set [1], the “effects of other dysfunctions associated” value was “reduce the effects of other dysfunctions” and the “complications associated with or caused” value is on record as “reduce complications associated with or caused by Type 2 Diabetes”. The “inhibition of PP2A in xenografts of human tumor cells in mice” value at PP2A [5] was “inhibitors of PP2A”. Moreover, in data set [2], the “Type 2 Diabetes related vascular injury caused by disruption of the endothelial barrier” value is given as “reduce Type 2 Diabetes related vascular injury caused by disruption of the endothelial barrier”; the “Type 2 Diabetes related vascular injury in the liver, muscle, retina and pancreas” value was “reduce Type 2 Diabetes related vascular injury in the liver, muscle, retina and pancreas”. In the data set on cancer cells, the “growth of cancer cells in mouse model systems” value is “inhibit the growth of cancer cells”. Also, in [3], the insulin resistance result is listed as “reduce insulin resistance” and the insulin sensitivity result is given as “increase insulin sensitivity”. The “inhibition of PP2A in vitro in human cancer cells” value at PP2A [6] is “inhibitors of PP2A”. In the data set with Akt, the “activation of Akt” value was “increase activation of Akt”; the “dephosphorylation and inactivation” value was “reduce dephophorylation and inactivation of Akt”; the “phosphorylation of Akt” value is “increase phosphorylation of Akt”.
`O=C1O[C@H]([C@@H](O)CO)C(O)=C1O` [ascorbic acid]: the “induction of endothelial barrier injury by lipopolysaccharide and interferon gamma” value in the data set on endothelial barrier [7] was “prevent the induction of endothelial barrier injury”. In addition, the endothelial barrier function result in the data set on endothelial barrier [8] is “improves endothelial barrier function”.
`C[C@@]12C(=O)OC(=O)[C@]1(C)[C@H]1CC[C@@H]2O1` [cantharidin]: the “impairment of insulin activity” value at PP2A [9] is recorded as “reversed the impairment of insulin activity”.
In the case of `C=C1[C@@H](O)[C@@H]2O[C@]3(CC[C@H](/C=C/[C@@H](C)[C@@H]4CC(C)=C[C@@]5(O[C@H](C[C@@](C)(O)C(=O)O)CC[C@H]5O)O4)O3)CC[C@H]2O[C@@H]1[C@@H](O)C[C@H](C)[C@H]1O[C@@]2(CCCCO2)CC[C@H]1C` [okadaic acid], the “impairment of insulin activity” value at PP2A [9] is reported as “reversed the impairment of insulin activity”. Also, in the data set with endothelial barrier [7], the “induction of endothelial barrier injury by lipopolysaccharide and interferon gamma” value is given as “prevent the induction of endothelial barrier injury; also recorded: prevents the induction of endothelial barrier dysfunction”.
